Test results published in the supplement of paper PMC12463676, “Small-molecule dissolution of stress granules by redox modulation benefits ALS models” (Nature Chemical Biology, 2025).

Legend:
[1] = compound: O=[As]([O-])(O)O.[K+] [potassium arsenate]; assay: thermal stability z-score vs DMSO; higher = more thermally stabilized by treatment; conditions: HeLa; arsenate concentration 1 mM
Procedure: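 Cellular thermal proteome profiling in HeLa cells treated with 1 mM arsenate for 1 h (DMSO pretreatment), heated to ten temperatures (37-66.3 °C). Soluble protein was quantified by TMT mass spectrometry relative to DMSO controls; the thermal stability score was transformed to a z-score; mean of n = 3 experiments.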

[2] = compound: NC(=O)CCCCC1CCSS1 [lipoamide]; assay: as above; conditions: HeLa, lipoamide concentration 100 µM
Procedure: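 Cellular thermal proteome profiling in HeLa cells. Cells were treated with 100 µM lipoamide for 1 h, with or without 1 mM arsenate for a further 1 h, then heated to ten temperatures (37-66.3 °C), and soluble protein was quantified by TMT mass spectrometry relative to 0.1% DMSO controls. The thermal stability score (sum of log2 fold changes minus the abundance score) was transformed to a z-score; mean of n = 3 experiments.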

[3] = arsenate co-treatment: 1 mM arsenate 1 h
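Also: each temperature applied for 3 min, abundance score taken as mean log2 fold change at the two lowest temperatures, z-score obtained by mean subtraction and division by SD.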

UniProt Q96J01, sequence (Q96J01 whole entry): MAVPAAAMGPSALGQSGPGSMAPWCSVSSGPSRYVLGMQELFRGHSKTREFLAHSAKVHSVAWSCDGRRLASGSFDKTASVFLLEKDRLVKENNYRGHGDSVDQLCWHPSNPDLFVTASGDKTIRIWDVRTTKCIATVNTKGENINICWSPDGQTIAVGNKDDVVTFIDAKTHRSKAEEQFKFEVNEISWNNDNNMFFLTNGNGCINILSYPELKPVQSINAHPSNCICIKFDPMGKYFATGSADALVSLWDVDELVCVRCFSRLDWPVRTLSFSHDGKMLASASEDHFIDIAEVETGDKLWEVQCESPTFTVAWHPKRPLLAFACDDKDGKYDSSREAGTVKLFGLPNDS
UniProt Q01085, sequence (Q01085 whole entry): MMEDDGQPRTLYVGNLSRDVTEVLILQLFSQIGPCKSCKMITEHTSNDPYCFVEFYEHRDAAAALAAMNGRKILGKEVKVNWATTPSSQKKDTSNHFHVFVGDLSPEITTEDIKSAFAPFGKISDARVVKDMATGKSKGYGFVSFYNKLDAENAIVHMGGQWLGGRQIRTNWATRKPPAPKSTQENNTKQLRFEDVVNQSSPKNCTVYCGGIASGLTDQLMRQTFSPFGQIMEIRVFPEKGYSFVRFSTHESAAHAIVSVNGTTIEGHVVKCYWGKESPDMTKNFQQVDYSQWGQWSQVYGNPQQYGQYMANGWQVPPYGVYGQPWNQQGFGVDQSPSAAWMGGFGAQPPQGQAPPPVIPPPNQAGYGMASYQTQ
UniProt O60870, sequence (O60870 whole entry): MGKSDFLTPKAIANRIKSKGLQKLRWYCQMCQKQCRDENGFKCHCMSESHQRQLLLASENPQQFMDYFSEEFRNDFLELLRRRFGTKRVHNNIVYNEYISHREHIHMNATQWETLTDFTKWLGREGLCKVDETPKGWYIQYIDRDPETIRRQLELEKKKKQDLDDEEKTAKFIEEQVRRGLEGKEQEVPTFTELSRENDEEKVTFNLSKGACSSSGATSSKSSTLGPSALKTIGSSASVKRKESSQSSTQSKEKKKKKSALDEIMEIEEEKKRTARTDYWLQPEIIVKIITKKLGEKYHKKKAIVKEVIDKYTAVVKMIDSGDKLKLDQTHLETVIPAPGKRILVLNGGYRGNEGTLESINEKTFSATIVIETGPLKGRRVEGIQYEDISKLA
UniProt Q9BRT6, sequence (Q9BRT6 whole entry): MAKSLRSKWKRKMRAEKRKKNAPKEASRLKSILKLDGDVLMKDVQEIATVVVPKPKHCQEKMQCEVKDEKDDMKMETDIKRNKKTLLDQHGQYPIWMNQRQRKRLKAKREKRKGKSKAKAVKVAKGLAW
UniProt P60174, sequence (P60174 whole entry): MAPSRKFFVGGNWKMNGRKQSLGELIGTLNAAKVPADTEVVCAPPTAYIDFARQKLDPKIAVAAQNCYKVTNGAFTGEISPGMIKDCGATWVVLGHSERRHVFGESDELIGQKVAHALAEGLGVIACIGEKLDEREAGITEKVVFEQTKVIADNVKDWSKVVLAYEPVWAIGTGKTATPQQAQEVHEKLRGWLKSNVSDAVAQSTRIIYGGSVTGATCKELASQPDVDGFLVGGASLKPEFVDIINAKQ
UniProt Q13643, sequence (Q13643 whole entry): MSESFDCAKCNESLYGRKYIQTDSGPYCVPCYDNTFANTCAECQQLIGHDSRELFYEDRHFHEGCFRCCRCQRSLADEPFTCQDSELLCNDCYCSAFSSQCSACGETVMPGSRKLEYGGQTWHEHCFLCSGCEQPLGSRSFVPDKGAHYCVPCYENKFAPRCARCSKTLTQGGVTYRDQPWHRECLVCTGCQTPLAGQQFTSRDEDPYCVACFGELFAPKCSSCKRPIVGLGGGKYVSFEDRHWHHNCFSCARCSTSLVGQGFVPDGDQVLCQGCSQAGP
UniProt Q8NDH3, sequence (Q8NDH3 whole entry): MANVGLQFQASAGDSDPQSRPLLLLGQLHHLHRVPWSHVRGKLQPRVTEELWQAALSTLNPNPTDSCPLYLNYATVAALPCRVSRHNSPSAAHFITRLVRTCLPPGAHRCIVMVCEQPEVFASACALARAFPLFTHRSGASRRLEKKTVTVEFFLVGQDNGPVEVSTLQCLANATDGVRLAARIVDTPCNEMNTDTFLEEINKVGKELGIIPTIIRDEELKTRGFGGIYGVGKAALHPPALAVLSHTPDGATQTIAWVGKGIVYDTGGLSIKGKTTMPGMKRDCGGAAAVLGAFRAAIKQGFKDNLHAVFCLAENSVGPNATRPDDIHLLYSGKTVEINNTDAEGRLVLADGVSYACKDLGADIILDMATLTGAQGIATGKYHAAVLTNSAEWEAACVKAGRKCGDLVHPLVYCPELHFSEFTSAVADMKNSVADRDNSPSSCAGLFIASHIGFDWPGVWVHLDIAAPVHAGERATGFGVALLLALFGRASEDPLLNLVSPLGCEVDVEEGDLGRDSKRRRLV
UniProt Q3SXY8, sequence (Q3SXY8 whole entry): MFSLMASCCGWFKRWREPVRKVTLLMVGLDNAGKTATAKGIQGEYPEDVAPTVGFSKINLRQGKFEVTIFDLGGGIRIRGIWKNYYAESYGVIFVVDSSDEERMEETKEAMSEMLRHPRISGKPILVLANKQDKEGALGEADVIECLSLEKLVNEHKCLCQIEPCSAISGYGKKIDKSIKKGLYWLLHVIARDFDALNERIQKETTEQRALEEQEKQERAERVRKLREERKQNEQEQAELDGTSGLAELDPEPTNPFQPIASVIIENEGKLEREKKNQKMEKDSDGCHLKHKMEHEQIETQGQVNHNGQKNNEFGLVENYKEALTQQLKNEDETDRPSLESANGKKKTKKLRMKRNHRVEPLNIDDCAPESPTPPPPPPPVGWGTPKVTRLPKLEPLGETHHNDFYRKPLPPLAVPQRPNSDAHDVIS
UniProt Q6AI08, sequence (Q6AI08 whole entry): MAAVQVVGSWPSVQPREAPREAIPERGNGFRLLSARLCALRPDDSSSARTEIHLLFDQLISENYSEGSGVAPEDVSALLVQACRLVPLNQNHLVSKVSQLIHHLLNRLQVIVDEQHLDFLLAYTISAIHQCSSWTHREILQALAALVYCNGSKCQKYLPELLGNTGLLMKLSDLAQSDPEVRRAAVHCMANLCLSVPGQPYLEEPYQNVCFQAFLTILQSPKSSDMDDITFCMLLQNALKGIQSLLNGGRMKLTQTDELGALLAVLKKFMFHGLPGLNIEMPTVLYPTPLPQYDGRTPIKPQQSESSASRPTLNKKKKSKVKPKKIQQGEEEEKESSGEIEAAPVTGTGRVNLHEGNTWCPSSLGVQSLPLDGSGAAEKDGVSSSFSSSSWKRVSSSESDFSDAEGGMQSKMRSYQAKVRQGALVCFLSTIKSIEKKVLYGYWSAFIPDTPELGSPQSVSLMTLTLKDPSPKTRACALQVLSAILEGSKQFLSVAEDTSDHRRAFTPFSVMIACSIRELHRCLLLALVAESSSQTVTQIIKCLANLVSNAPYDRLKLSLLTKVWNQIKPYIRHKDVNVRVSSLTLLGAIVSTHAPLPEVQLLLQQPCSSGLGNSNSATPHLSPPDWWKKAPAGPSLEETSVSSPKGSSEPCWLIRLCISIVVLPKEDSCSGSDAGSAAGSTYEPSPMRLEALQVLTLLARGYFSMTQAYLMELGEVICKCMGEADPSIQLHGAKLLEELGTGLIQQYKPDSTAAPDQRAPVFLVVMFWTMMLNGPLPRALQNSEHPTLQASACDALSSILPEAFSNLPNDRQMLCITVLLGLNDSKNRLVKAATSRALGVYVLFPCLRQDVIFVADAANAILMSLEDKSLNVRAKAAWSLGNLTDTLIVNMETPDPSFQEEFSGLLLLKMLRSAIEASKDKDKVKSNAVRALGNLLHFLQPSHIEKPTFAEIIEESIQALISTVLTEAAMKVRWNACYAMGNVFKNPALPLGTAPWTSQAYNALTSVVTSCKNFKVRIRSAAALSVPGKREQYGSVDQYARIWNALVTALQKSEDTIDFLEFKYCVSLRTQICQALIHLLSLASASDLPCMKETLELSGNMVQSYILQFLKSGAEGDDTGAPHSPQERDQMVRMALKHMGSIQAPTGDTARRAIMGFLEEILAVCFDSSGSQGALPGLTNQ
UniProt Q9NT62, sequence (Q9NT62 whole entry): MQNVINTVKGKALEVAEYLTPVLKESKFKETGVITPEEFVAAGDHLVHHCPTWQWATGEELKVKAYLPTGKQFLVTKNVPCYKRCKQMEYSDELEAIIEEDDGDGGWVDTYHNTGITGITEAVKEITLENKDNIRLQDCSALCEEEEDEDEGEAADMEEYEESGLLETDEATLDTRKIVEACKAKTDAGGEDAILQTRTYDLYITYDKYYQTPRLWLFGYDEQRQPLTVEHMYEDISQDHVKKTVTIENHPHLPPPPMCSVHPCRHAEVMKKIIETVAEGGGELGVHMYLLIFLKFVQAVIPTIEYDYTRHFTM
UniProt P52569, sequence (P52569 whole entry): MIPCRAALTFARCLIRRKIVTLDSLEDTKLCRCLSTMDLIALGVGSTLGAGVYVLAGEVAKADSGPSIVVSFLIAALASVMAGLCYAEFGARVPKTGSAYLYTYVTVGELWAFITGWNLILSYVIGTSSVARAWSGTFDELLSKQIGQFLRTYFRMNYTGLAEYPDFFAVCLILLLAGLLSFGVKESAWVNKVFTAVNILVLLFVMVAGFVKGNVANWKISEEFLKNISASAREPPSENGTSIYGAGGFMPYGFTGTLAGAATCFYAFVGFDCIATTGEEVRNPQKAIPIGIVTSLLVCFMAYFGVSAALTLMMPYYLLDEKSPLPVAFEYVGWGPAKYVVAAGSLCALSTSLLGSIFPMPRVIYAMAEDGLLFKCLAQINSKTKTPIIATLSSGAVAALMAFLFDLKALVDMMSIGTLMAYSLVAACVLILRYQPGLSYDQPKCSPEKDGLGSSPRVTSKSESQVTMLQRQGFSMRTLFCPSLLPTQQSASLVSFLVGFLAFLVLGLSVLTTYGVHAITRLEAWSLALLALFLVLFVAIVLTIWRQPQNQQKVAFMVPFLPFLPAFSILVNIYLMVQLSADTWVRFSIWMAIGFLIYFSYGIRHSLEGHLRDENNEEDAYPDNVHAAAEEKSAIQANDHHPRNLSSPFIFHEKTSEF

Target	thermal stability z-score [1]	thermal stability z-score [2, 3]	thermal stability z-score ([2]; arsenate co-treatment: none)
NDC80 (UniProt O14777)	1.71	-0.361	0.254
WRAP53 (UniProt Q9BUR4)	-0.337	-0.113	-0.15
MSTO1 (UniProt Q9BUK6)	-0.742	0.101	-0.0527
PUDP (UniProt Q08623)	-1.3	0.292	-0.0843
GTPBP8 (UniProt Q8N3Z3)	-0.0237	0.145	0.0392
ALDH7A1 (UniProt P49419)	0.994	1.36	0.584
RAB20 (UniProt Q9NX57)	-0.306	-0.495	-0.609
LLPH (UniProt Q9BRT6)	-2.48	-1.21	-1.15
RFC3 (UniProt P40938)	-0.0936	-0.548	-0.365
HLCS (UniProt P50747)	-0.0791	-1.26	-0.885
MRPL10 (UniProt Q7Z7H8)	0.0461	0.127	0.224
MAP3K6 (UniProt O95382)	-0.0305	0.0331	-0.0259
APPL2 (UniProt Q8NEU8)	-0.0173	0.0353	-0.132
NT5C3A (UniProt Q9H0P0)	-1.77	0.0681	0.155
NUP88 (UniProt Q99567)	0.549	-0.607	-0.513
ITPK1 (UniProt Q13572)	-0.31	-0.0201	0.179
HPS3 (UniProt Q969F9)	-0.255	-0.021	0.206
SF3B1 (UniProt O75533)	-0.873	2.46	0.661
PQBP1 (UniProt O60828)	-0.0247	0.533	-0.261
MTOR (UniProt P42345)	0.0121	0.00431	0.137
HENMT1 (UniProt Q5T8I9)	0.197	-0.37	-0.0316
KAT8 (UniProt Q9H7Z6)	-0.509	0.773	-0.409
HEATR6 (UniProt Q6AI08)	0.868	0.393	0.194
INTS4 (UniProt Q96HW7)	-0.0059	1.08	1.34

Target	thermal stability z-score [1]	thermal stability z-score [2, 3]	thermal stability z-score ([2]; arsenate co-treatment: none)
TRIM24 (UniProt O15164)	-0.334	0.0835	0.184
CDK2AP1 (UniProt O14519)	-0.113	-0.0893	-0.224
SPAG9 (UniProt O60271)	0.732	0.012	-0.0736
THOC3 (UniProt Q96J01)	-0.683	0.252	0.058
RB1 (UniProt P06400)	-0.64	0.306	0.229
NPRL3 (UniProt Q12980)	-0.104	-0.0487	0.0269
MCAT (UniProt Q8IVS2)	1.17	0.313	0.162
APEH (UniProt P13798)	0.225	0.391	0.223
MAPRE1 (UniProt Q15691)	0.154	0.796	0.705
TMED7 (UniProt Q9Y3B3)	0.0944	-0.983	-0.909
ARL13B (UniProt Q3SXY8)	-1.37	-0.415	-0.29
CIT (UniProt O14578)	-0.76	0.342	-0.767
ATG3 (UniProt Q9NT62)	-0.627	0.381	0.021
SLC7A2 (UniProt P52569)	0.647	0.412	-0.0842
KIN (UniProt O60870)	-0.174	-0.0116	0.0339
FHL3 (UniProt Q13643)	-3.01	0.648	-0.254
NPEPL1 (UniProt Q8NDH3)	1.2	-0.24	-0.808
UTP14A (UniProt Q9BVJ6)	2.11	1.62	0.823
RPAP1 (UniProt Q9BWH6)	0.256	-0.806	-0.223
PUM3 (UniProt Q15397)	0.369	0.119	-0.0918
STXBP2 (UniProt Q15833)	0.225	-0.105	0.167
ATP5J (UniProt P18859)	1.53	2.44	1.93
RPL7L1 (UniProt Q6DKI1)	-0.203	0.203	0.0421
ITCH (UniProt Q96J02)	-0.386	-0.451	-0.173

Target	thermal stability z-score [1]	thermal stability z-score [2, 3]	thermal stability z-score ([2]; arsenate co-treatment: none)
CIZ1 (UniProt Q9ULV3)	-0.0848	0.0439	-0.505
MCM5 (UniProt P33992)	2.47	-0.676	-0.191
PTPN3 (UniProt P26045)	-0.31	-0.085	-0.294
C1ORF52 (UniProt Q8N6N3)	-0.417	0.477	0.0555
HNRNPF (UniProt P52597)	-0.208	-0.401	-0.136
SCYL3 (UniProt Q8IZE3)	-0.314	-0.406	-0.146
TPI1 (UniProt P60174)	-0.48	0.408	0.0882
AGL (UniProt P35573)	0.0621	0.414	0.398
HDGFRP2 (UniProt Q7Z4V5)	0.126	0.576	0.499
CLPB (UniProt Q9H078)	-0.0952	-0.507	-0.275
RSL1D1 (UniProt O76021)	-0.48	0.414	-0.108
MRPS35 (UniProt P82673)	-0.0913	-0.663	-0.362
GTF2F2 (UniProt P13984)	-0.198	0.00925	-0.239
HSPA1B|HSPA1A	-0.064	-0.148	0.0496
SFXN3 (UniProt Q9BWM7)	0.16	0.507	0.279
GOLGB1 (UniProt Q14789)	0.886	-0.345	-0.0596
ERCC1 (UniProt P07992)	0.0982	-0.168	0.0263
DNASE2 (UniProt O00115)	0.114	0.424	0.747
PNPO (UniProt Q9NVS9)	-0.734	0.101	0.677
TIAL1 (UniProt Q01085)	-1.23	-0.227	0.0243
HMCES (UniProt Q96FZ2)	-0.565	0.164	0.254
GOLGA7 (UniProt Q7Z5G4)	-1.71	-1.29	-0.742
ARF5 (UniProt P84085)	-0.187	-0.258	-0.517
